This experiment deals with S. aureus ATCC 6538. As to the kind of experiment: Time-kill assay (adapted from ASTM E2315-16), Gram positive. It is filed as cell-based. Conditions: Table II, simulated 10% slurry. As for the experimental part: Aqueous slurries were prepared whereby gratings from the bars made in the Samples of Table I were mixed with water to form a test solution containing 10% by weight of the initial bar component. In the second method, raw bar components, as depicted in the Samples in Table II, were mixed with water to form a test solution containing a total of 10% raw bar component to simulate an aqueous slurry of a bar composition. For each sample, aqueous slurries were mixed at 50° C. to simulate customary consumer washing conditions.
As to the microbes, E. coli ATCC 10536 and S. aureus ATCC 6538 were used in this study to represent Gram negative and Gram positive bacteria, respectively. The bacteria were stored at −80° C. Fresh isolates were cultured twice on Tryptic Soy Agar plates for 24 hours at 37° C. before each experiment.
Test solutions were prepared. In the first method and for the aqueous slurries made from the bar compositions described in Table I, a composition (typically containing up to 15% surfactant) was mixed with water to form a test solution containing 10% weight percent of the initial formulation. In the second method and for the raw ingredients combined in Table II, the same were mixed with water at levels that simulate a 10% dilution of the slurries. In each assessment, test solutions were heated and mixed at […]
The log reduction was calculated using the formula: […]

As for `CC(O)C(=O)O` (stereo not shown) [lactic acid], the “S. aureus Log Reduction (46° C., 30 sec)” value is on record as “performed poorly”.

The values above are taken from patent US20250051694A1, “BAR COMPOSITION HAVING ENHANCED ANTIMICROBIAL ACTIVITY” (Conopco, Inc., d/b/a UNILEVER, priority 2021, published 2025).
